Results as given in PMC6207684, “Structural reorganization of SHP2 by oncogenic mutations and implications for oncoprotein resistance to allosteric inhibition” (Nature Communications, 2018).
Numbering of substitutions follows the chain as printed. Where a SMILES comes first, the peptide text is derived from it. [ ]: non-standard residue; d: D form. pY = N[C@@H](Cc1ccc(OP(=O)(O)O)cc1)C(=O)O; PEG8 = NCCOCCOCCOCCOCCOCCOCCOCCOCCC(=O)O

Experiments:
Assay in all cases: SHP2 phosphatase activity upon p-IRS-1 peptide stimulation (DiFMUP)
Format in all cases: biochemical
Settings in all cases: 200 μM DiFMUP, read-out: pIRS-1 AC50
[1] = molecular target: T1, SHP2^WT (Homo sapiens, UniProt Q06124)
T1 construct: made in house
T1 sequence (Q06124 1-593): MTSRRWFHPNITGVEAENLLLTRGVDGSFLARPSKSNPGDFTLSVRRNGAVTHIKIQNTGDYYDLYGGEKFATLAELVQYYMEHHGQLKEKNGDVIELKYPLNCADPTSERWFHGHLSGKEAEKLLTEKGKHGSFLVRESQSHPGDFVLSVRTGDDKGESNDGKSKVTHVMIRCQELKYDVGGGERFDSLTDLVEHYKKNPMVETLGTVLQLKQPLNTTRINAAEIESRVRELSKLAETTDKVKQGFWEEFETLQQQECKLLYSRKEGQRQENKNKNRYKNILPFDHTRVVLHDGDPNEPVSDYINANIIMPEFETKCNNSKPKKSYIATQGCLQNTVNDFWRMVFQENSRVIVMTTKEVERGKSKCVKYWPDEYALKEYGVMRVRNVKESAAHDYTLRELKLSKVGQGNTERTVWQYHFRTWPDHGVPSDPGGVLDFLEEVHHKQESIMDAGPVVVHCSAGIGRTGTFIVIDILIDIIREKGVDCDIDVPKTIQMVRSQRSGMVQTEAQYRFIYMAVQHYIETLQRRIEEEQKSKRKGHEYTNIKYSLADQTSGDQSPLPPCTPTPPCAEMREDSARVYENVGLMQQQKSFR
Description: (§1) Wild-type and mutant SHP2 proteins were diluted to 0.1 nM and treated with either varying concentrations of diphosphorylated IRS-1 peptide (pY1172-Peg-PY1222, SLNY(p)IDLDLVK-dPEG8-LSTY(p)ASINFQK), or for maximal activation, 10 μM pY1172-Peg-PY1222. Phosphatase activity was measured through the dephosphorylation DiFMUP (200 μM, ex. 385, em. 450 nm) on a Spectramax M5 plate reader and converted to product (DiFMU)/time by preparing a standard curve of DiFMU/DiFMUP. Velocity data were fit to the following three-parameter dose–response curve (Eq. (2)) to extrapolate EC50 values:2 V=Basal+Max-Basal∕1+10^LogEC50-S Where V represents enzyme velocity, Basal is basal response, Max is maximal response, [S] is substrate concentration, and EC50 is the substrate concentration that yields response half way between basal and maximal.

[2] = molecular target: T2, SHP2^G60V (Homo sapiens, UniProt Q06124, G60V)
T2 construct: made in house
T2 sequence (Q06124 1-593 G60V): T1 sequence (Q06124 1-593) with G60V
Description: as §1

[3] = molecular target: T3, SHP2^F285S (Homo sapiens, UniProt Q06124, F285S)
T3 construct: made in house
T3 sequence (Q06124 1-593 F285S): T1 sequence (Q06124 1-593) with F285S
Description: as §1

[4] = molecular target: T4, SHP2^S502P (Homo sapiens, UniProt Q06124, S502P)
T4 construct: made in house
T4 sequence (Q06124 1-593 S502P): T1 sequence (Q06124 1-593) with S502P
Description: as §1

[5] = molecular target: T5, SHP2^D61V (Homo sapiens, UniProt Q06124, D61V)
T5 construct: made in house
T5 sequence (Q06124 1-593 D61V): T1 sequence (Q06124 1-593) with D61V
Description: as §1

AC50 [1]: 247 ± 18 nM
AC50 [2]: 9 ± 2 nM
AC50 [3]: 18 ± 2 nM
AC50 [4]: 5 ± 2 nM
AC50 [5]: 4 ± 1 nM
SMILES: CC[C@H](C)[C@H](NC(=O)[C@H](CO)NC(=O)[C@H](C)NC(=O)[C@H](Cc1ccc(OP(=O)(O)O)cc1)NC(=O)[C@@H](NC(=O)[C@H](CO)NC(=O)[C@H](CC(C)C)NC(=O)CCOCCOCCOCCOCCOCCOCCOCCOCCNC(=O)[C@H](CCCCN)NC(=O)[C@@H](NC(=O)[C@H](CC(C)C)NC(=O)[C@H](CC(=O)O)NC(=O)[C@H](CC(C)C)NC(=O)[C@H](CC(=O)O)NC(=O)[C@@H](NC(=O)[C@H](Cc1ccc(OP(=O)(O)O)cc1)NC(=O)[C@H](CC(N)=O)NC(=O)[C@H](CC(C)C)NC(=O)[C@@H](N)CO)[C@@H](C)CC)C(C)C)[C@@H](C)O)C(=O)N[C@@H](CC(N)=O)C(=O)N[C@@H](Cc1ccccc1)C(=O)N[C@@H](CCC(N)=O)C(=O)N[C@@H](CCCCN)C(=O)O [pIRS-1, SLNY(p)IDLDLVK-dPEG8-LSTY(p)ASINFQK] (H-SLN[pY]IDLDLVK[PEG8]LST[pY]ASINFQK-OH)
